Values joined by “and” are separate entries in the source; they are usually repeats but may differ in a detail not shown here. Equal values may be shown once.
Tests used:
[1] = cited from earlier work
[2] = patients under insulin treatment; cited from earlier work
BALB/c mice = test: Glycemia after oral insulin solution (not seized in polymer) in BALB/c mice; format: in vivo; settings: for Glycemia: oral insulin solution 4 IU/kg, group averages (4 groups of 5 mice)
Procedure: Excipients: Zinc Chloride, glycerol, metacresol, Sodium hydroxide, Chloridic acid, and water suitable for injections. • The irradiation conditions ensuring the best quality of the final product has been described. • Its release or liberation under laboratory conditions and in laboratory animals has been studied. • Bioavailability in laboratory animals, has been studied. • Laboratory experimental pharmacological steps are included. The determination of glycemia in blood is performed employing the following apparatus:
Measuring type device: Accu-Chek Active
The measured values listed in the table are shown averaged in FIG. 1.
GLYCEMIA as a function of time, averaged in four groups of BALB/c mice (five mice in each group), to which oral insulin solution (4 IU/kg) was administered (insulin without been seized into polymer).

[3] = average action profile after subcutaneous injection

For Biosynthetic human insulin, the “Action profile: Duration” value [1, 3] is listed as 7 to 8 h, the “Action profile: Initial” value [1, 3] is listed as “within the first half hour” and the “Bond to plasmatic proteins” value ([1]; except circulating insulin antibodies) is listed as “No significative bond to plasmatic proteins”. For the same substance, the “Average life (t½) of insulin in the bloodstream” value ([1]; in bloodstream) was “only of a few minutes”, the t½ ([1]; injected (subcutaneous) insulin, clinical studies, determined by absorption) was 2 to 5 h and the “Frequency of changes in the levels of glucose in the blood” value [2] was < 1/1000. For the same substance, the “Change of glycemia in mice” value (BALB/c mice; 30 to 75 minutes after oral administration of insulin solution) was “slight diminution of glycemia”, the Glycemia (BALB/c mice; time 0 min) was 100 mg/dL and 102 mg/dL and 105 mg/dL and the Glycemia (BALB/c mice; time 15 min) was 98 mg/dL and 97 mg/dL and 96 mg/dL. For the same substance, the Glycemia (BALB/c mice; time 30 min) was 101 mg/dL and 102 mg/dL and 103 mg/dL and 105 mg/dL, the Glycemia (BALB/c mice; time 60 min) was 90 mg/dL and 93 mg/dL and 98 mg/dL and 96 mg/dL and the Glycemia (BALB/c mice; time 90 min) was 93 mg/dL and 95 mg/dL and 90 mg/dL and 94 mg/dL. The Glycemia (BALB/c mice; time 180 min) was 104 mg/dL and 102 mg/dL and 105 mg/dL and 100 mg/dL.
